Key:
[1] = Oral bioavailability in rat; type: ADME, organism-based; conditions: in vivo
[2] = in vivo; conditions: rat, plasma, iv
[3] = in vivo; conditions: rat, plasma, po, 10 mg/kg
[4] = in vivo; conditions: rat, plasma, po
[5] = in vivo; conditions: rat, plasma, po; remark: listed apart in the source

Row | Structure (SMILES) | bioavailability [1] | half-life [2] | Cmax [3] | Tmax [4] | AUC [5]
1 | CC(C)c1nc(COC(=O)NC(C(=O)N[C@@H](Cc2ccccc2)C[C@H](O)[C@H](Cc2ccccc2)NC(=O)OCc2cccnc2)C(C)C)co1 (stereo not given in full) | 5% | 19.8 min | 460 nM | 12 min | 200 ng·h/mL
2 | Cc1ncc(COC(=O)N[C@@H](Cc2ccccc2)[C@@H](O)C[C@H](Cc2ccccc2)NC(=O)C(NC(=O)N(C)Cc2csc(C(C)C)n2)C(C)C)s1 (stereo not given in full) | 23% | 26.4 min | 650 nM | 72 min | 910 ng·h/mL
3 | Cc1cccc(CN(C)C(=O)NC(C(=O)N[C@@H](Cc2ccccc2)[C@@H](O)C[C@H](Cc2ccccc2)NC(=O)OCc2cccnc2)C(C)C)n1 (stereo not given in full) | 16% | 13.2 min | 2420 nM | 15 min | 950 ng·h/mL
4 | COc1ccc(CN(C)C(=O)NC(C(=O)N[C@@H](Cc2ccccc2)C[C@H](O)[C@H](Cc2ccccc2)NC(=O)OCc2cccnc2)C(C)C)cn1 (stereo not given in full) | 10% | 13.2 min | 1750 nM | 6 min | 320 ng·h/mL
5 | COCc1nc(COC(=O)NC(C(=O)N[C@@H](Cc2ccccc2)[C@@H](O)C[C@H](Cc2ccccc2)NC(=O)OCc2cccnc2)C(C)C)cs1 (stereo not given in full) | 10% | 16.2 min | 1790 nM | 13.8 min | 630 ng·h/mL
6 | CC(C)C(NC(=O)N(C)Cc1csc(C(C)(C)C)n1)C(=O)N[C@@H](Cc1ccccc1)[C@@H](O)C[C@H](Cc1ccccc1)NC(=O)OCc1cccnc1 (stereo not given in full) | 9.3% | 21.6 min | 830 nM | 19.8 min | 510 ng·h/mL
7 | CC(C)C(NC(=O)N(C)Cc1csc(C2CCC2)n1)C(=O)N[C@@H](Cc1ccccc1)C[C@H](O)[C@H](Cc1ccccc1)NC(=O)OCc1cncs1 (stereo not given in full) | 60% | 24 min | 2480 nM | 72 min | 6290 ng·h/mL
8 | CC(C)c1nc(CN(C)C(=O)NC(C(=O)N[C@@H](Cc2ccccc2)C[C@H](O)[C@H](Cc2ccccc2)NC(=O)OCc2ccno2)C(C)C)co1 (stereo not given in full) | 3.8% | 24 min | 490 nM | 6 min | 180 ng·h/mL
9 | CC(C)c1ncc(COC(=O)NC(C(=O)N[C@@H](Cc2ccccc2)[C@@H](O)C[C@H](Cc2ccccc2)NC(=O)OCc2cccnc2)C(C)C)s1 (stereo not given in full) | 0.8% | 37.2 min | 100 nM | 12 min | 30 ng·h/mL
10 | CC(C)c1nc(CN(C)C(=O)NC(C(=O)N[C@@H](Cc2ccccc2)C[C@H](O)[C@H](Cc2ccccc2)NC(=O)OCc2cnco2)C(C)C)co1 (stereo not given in full) | 35% | 15.6 min | 2050 nM | 9 min | 1850 ng·h/mL
11 | COc1ccc(CN(C)C(=O)NC(C(=O)N[C@@H](Cc2ccccc2)[C@@H](O)C[C@H](Cc2ccccc2)NC(=O)OCc2cccnc2)C(C)C)cn1 (stereo not given in full) | 7.9% | 19.2 min | 1830 nM | 6 min | 310 ng·h/mL
12 | COc1ccc(COC(=O)NC(C(=O)N[C@@H](Cc2ccccc2)[C@@H](O)C[C@H](Cc2ccccc2)NC(=O)OCc2cccnc2)C(C)C)cn1 (stereo not given in full) | 3.3% | 25.8 min | 560 nM | 9 min | 160 ng·h/mL
13 | CC(C)C(NC(=O)OCc1cncc(N)c1)C(=O)N[C@@H](Cc1ccccc1)[C@@H](O)C[C@H](Cc1ccccc1)NC(=O)OCc1cccnc1 (stereo not given in full) | 0.5% | 43.2 min | 200 nM | 6 min | 20 ng·h/mL
14 | CCc1cccc(COC(=O)NC(C(=O)N[C@@H](Cc2ccccc2)[C@@H](O)C[C@H](Cc2ccccc2)NC(=O)OCc2cccnc2)C(C)C)n1 (stereo not given in full) | 16% | 44.4 min | 1260 nM | 15 min | 810 ng·h/mL
15 | Cc1cncc(COC(=O)NC(C(=O)N[C@@H](Cc2ccccc2)[C@@H](O)C[C@H](Cc2ccccc2)NC(=O)OCc2cccnc2)C(C)C)c1 (stereo not given in full) | 5.9% | 16.8 min | 480 nM | 18 min | 210 ng·h/mL
16 | Cc1cccc(COC(=O)NC(C(=O)N[C@@H](Cc2ccccc2)[C@@H](O)C[C@H](Cc2ccccc2)NC(=O)OCc2cccnc2)C(C)C)n1 (stereo not given in full) | 7.5% | 44.4 min | 1150 nM | 19.8 min | 610 ng·h/mL
17 | Cc1ncc(COC(=O)N[C@@H](Cc2ccccc2)C[C@H](O)[C@H](Cc2ccccc2)NC(=O)C(NC(=O)N(C)Cc2csc(C(C)C)n2)C(C)C)s1 (stereo not given in full) | 28% | 27.6 min | 2080 nM | 42 min | 2370 ng·h/mL
18 | COc1ccc(CN(C)C(=O)NC(C(=O)N[C@@H](Cc2ccccc2)[C@@H](O)C[C@H](Cc2ccccc2)NC(=O)OCc2cccnc2)C(C)C)nc1 (stereo not given in full) | 17% | 36 min | 2170 nM | 9 min | 820 ng·h/mL
19 | Cc1cccc(COC(=O)NC(C(=O)N[C@@H](Cc2ccccc2)C[C@H](O)[C@H](Cc2ccccc2)NC(=O)OCc2cccnc2)C(C)C)n1 (stereo not given in full) | 16% | 117 min | 1740 nM | 6 min | 900 ng·h/mL

Row | Structure (SMILES) | bioavailability [1] | half-life [2] | Cmax [3] | Tmax [4] | AUC [5]
20 | CC(NC(=O)N(C)Cc1coc(C(C)C)n1)C(=O)N[C@@H](Cc1ccccc1)C[C@H](O)[C@H](Cc1ccccc1)NC(=O)OCc1cncs1 (stereo not given in full) | 23% | 240 min | 3600 nM | 15 min | 2860 ng·h/mL
21 | Cc1ccc(COC(=O)NC(C(=O)N[C@@H](Cc2ccccc2)[C@@H](O)C[C@H](Cc2ccccc2)NC(=O)OCc2cccnc2)C(C)C)cn1 (stereo not given in full) | 6.3% | 34.2 min | 450 nM | 6 min | 240 ng·h/mL
22 | COc1cncc(COC(=O)NC(C(=O)N[C@@H](Cc2ccccc2)C[C@H](O)[C@H](Cc2ccccc2)NC(=O)OCc2cccnc2)C(C)C)c1 (stereo not given in full) | 0.9% | 48 min | 200 nM | 6 min | 30 ng·h/mL
23 | CCc1nc(CN(C)C(=O)NC(C(=O)N[C@@H](Cc2ccccc2)C[C@H](O)[C@H](Cc2ccccc2)NC(=O)OCc2cncs2)C(C)C)cs1 (stereo not given in full) | 70% | 48 min | 6170 nM | 72 min | 14200 ng·h/mL
24 | CC(C)c1nc(CN(C)C(=O)NC(C(=O)N[C@@H](Cc2ccccc2)C[C@H](O)[C@H](Cc2ccccc2)NC(=O)OCc2cnco2)C(C)C)cs1 (stereo not given in full) | 23% | 33.6 min | 1590 nM | 34.8 min | 2650 ng·h/mL
25 | CC(NC(=O)N(C)Cc1csc(C(C)C)n1)C(=O)N[C@@H](Cc1ccccc1)C[C@H](O)[C@H](Cc1ccccc1)NC(=O)OCc1cncs1 (stereo not given in full) | 31% | 54 min | 1680 nM | 30 min | 1600 ng·h/mL
26 | Cc1ncsc1CCOC(=O)NC(C(=O)N[C@@H](Cc1ccccc1)[C@@H](O)C[C@H](Cc1ccccc1)NC(=O)OCc1cccnc1)C(C)C (stereo not given in full) | 9.2% | 27 min | 410 nM | 27 min | 360 ng·h/mL
27 | CC(C)c1nc(CN(C)C(=O)NC(C(=O)N[C@@H](Cc2ccccc2)[C@@H](O)C[C@H](Cc2ccccc2)NC(=O)OCc2cccnc2)C(C)C)cs1 (stereo not given in full) | 24% | 45 min | 1650 nM | 15 min | 950 ng·h/mL
28 | CCc1cccc(CN(C)C(=O)NC(C(=O)N[C@@H](Cc2ccccc2)[C@@H](O)C[C@H](Cc2ccccc2)NC(=O)OCc2cccnc2)C(C)C)n1 (stereo not given in full) | 23% | 31.2 min | 1530 nM | 9 min | 730 ng·h/mL
29 | CC(C)C(NC(=O)OCc1ccccn1)C(=O)N[C@@H](Cc1ccccc1)[C@@H](O)C[C@H](Cc1ccccc1)NC(=O)OCc1cccnc1 (stereo not given in full) | 26% | 114 min | 4110 nM | 15 min | 1980 ng·h/mL
30 | CC(C)c1nc(CN(C)C(=O)NC(C(=O)N[C@@H](Cc2ccccc2)C[C@H](O)[C@H](Cc2ccccc2)NC(=O)OCc2ccno2)C(C)C)cs1 (stereo not given in full) | 7.7% | 35.4 min | 370 nM | 12 min | 270 ng·h/mL
31 | Cc1ccc(CN(C)C(=O)NC(C(=O)N[C@@H](Cc2ccccc2)C[C@H](O)[C@H](Cc2ccccc2)NC(=O)OCc2cccnc2)C(C)C)cn1 (stereo not given in full) | 2.1% | 21 min | 310 nM | 12 min | 60 ng·h/mL
32 | Cc1nc(CN(C)C(=O)NC(C(=O)N[C@@H](Cc2ccccc2)C[C@H](O)[C@H](Cc2ccccc2)NC(=O)OCc2cccnc2)C(C)C)cs1 (stereo not given in full) | 26% | 43.2 min | 2100 nM | 9 min | 1060 ng·h/mL
33 | CCc1nc(CN(C)C(=O)NC(C(=O)N[C@@H](Cc2ccccc2)C[C@H](O)[C@H](Cc2ccccc2)NC(=O)OCc2cncs2)C(C)C)co1 (stereo not given in full) | 57% | 120 min | 8010 nM | 19.8 min | 8910 ng·h/mL
34 | CCc1nc(CN(C)C(=O)NC(C(=O)N[C@@H](Cc2ccccc2)[C@@H](O)C[C@H](Cc2ccccc2)NC(=O)OCc2cccnc2)C(C)C)cs1 (stereo not given in full) | 20% | 44.4 min | 1460 nM | 12 min | 870 ng·h/mL
35 | CC(C)C(NC(=O)OCc1cncc(N)c1)C(=O)N[C@@H](Cc1ccccc1)C[C@H](O)[C@H](Cc1ccccc1)NC(=O)OCc1cccnc1 (stereo not given in full) | 0.3% | 30 min | 140 nM | 6 min | 30 ng·h/mL
36 | Cc1nc(CN(C)C(=O)NC(C(=O)N[C@@H](Cc2ccccc2)[C@@H](O)C[C@H](Cc2ccccc2)NC(=O)OCc2cccnc2)C(C)C)cs1 (stereo not given in full) | 15% | 89.4 min | 2010 nM | 15 min | 1080 ng·h/mL
37 | COc1cncc(CN(C)C(=O)NC(C(=O)N[C@@H](Cc2ccccc2)[C@@H](O)C[C@H](Cc2ccccc2)NC(=O)OCc2cccnc2)C(C)C)c1 (stereo not given in full) | 0.8% | 10.2 min | 440 nM | 6 min | 50 ng·h/mL
